Marks after values point to notes of the source that are not given here.
Experiments:
[1] = system: LPS-treated 3T3-L1 adipocytes; test: Adiponectin secretion in LPS/3T3-L1 adipocytes; assay type: cell-based, murine; conditions: for adiponectin secretion: any dose tested; for % Stimulation of adiponectin secretion (maximum): at the concentration of maximum stimulation, NS = not significantly different from the LPS control
3T3-L1 adipocytes = test: Lipogenesis in 3T3-L1 adipocytes (Oil Red O / BODIPY); assay type: cell-based, murine; conditions: relative to controls
Description: Prior to experiments, cells were cultured in DMEM containing 10% FBS-HI added 50 units penicillin/ml and 50 μg streptomycin/ml, and maintained in log phase prior to experimental setup. Cells were grown in a 5% CO2 humidified incubator at 37° C. Components of the pre-confluent medium included (1) 10% FBS/DMEM containing 4.5 g glucose/L; (2) 50 U/ml penicillin; and (3) 50 μg/ml streptomycin. Growth medium was made by adding 50 ml of heat inactivated FBS and 5 ml of penicillin/streptomycin to 500 ml DMEM. This medium was stored at 4° C. Before use, the medium was warmed to 37° C. in a water bath.
3T3-T1 cells were seeded at an initial density of 6×10^4 cells/cm^2 in 24-well plates. For two days, the cells were allowed grow to reach confluence. Following confluence, the cells were forced to differentiate into adipocytes by the addition of differentiation medium; this medium consisted of (1) 10% FBS/DMEM (high glucose); (2) 0.5 mM methylisobutylxanthine; (3) 0.5 μM dexamethasone and (4) 10 μg/ml insulin (MDI medium). After three days, the medium was changed to post-differentiation medium consisting of 10 μg/ml insulin in 10% FBS/DMEM.
AcE was partially dissolved in dimethyl sulfoxide (DMSO) and added to the culture medium to achieve a concentration of 50 μg/ml at Day 0 of differentiation and throughout the maturation phase (Days 6 or 7 (D6/7)). Whenever fresh media were added, fresh test material was also added. DMSO was chosen for its polarity and the fact that it is miscible with the aqueous cell culture media.
Oil Red O Staining—Triglyceride content of D6/D7-differentiated 3T3-L1 cells was estimated with Oil Red O according to the method of Kasturi and Joshi [Kasturi, R. and Joshi, V. C. […] Monolayer cells were washed with PBS (phosphate buffered saline, Mediatech) and fixed with 10% formaldehyde for ten minutes. Fixed cells were stained with an Oil Red O working solution of three parts 0.6% Oil Red O/isopropanol stock solution and two parts water for one hour and the excess stain was washed once with water. The resulting stained oil droplets were extracted from the cells with isopropanol and quantified by spectrophotometric analysis at 540 nm (MEL312e BIO-KINETICS READER, Bio-Tek Instruments, Winooski, Vt.).
Briefly, media were removed and cells were washed once with non-sterile PBS. A stock 1000× BODIPY/DMSO solution was made by dissolving 1 mg BODIPY in 1 ml DMSO (1,000 μg BODIPY/ml). […] After 15 min on an orbital shaker (DS-500, VWR Scientific Products, South Plainfield, N.J.) at ambient temperature, the cells were washed with 100 μl PBS followed by the addition of 100 μl PBS for reading for spectrofluorometric determination of BODIPY incorporation into the cells. […]

[2] = system: insulin-resistant 3T3-L1 adipocytes; test: Adiponectin secretion from insulin-resistant 3T3-L1 adipocytes; assay type: cell-based, murine; conditions: 50.0 μg/ml; ratio of Adiponectin Index to IL-6 Index (Table 21)
[3] = system: LPS-stimulated 3T3-L1 adipocytes; test: IL-6 secretion in LPS/3T3-L1 adipocytes; assay type: cell-based, murine; conditions: at the concentration of maximum inhibition, 100 ng LPS/ml, D5 3T3-L1; for IL-6 Index: indexed to LPS control
[4] = system: TNFα-treated 3T3-L1 adipocytes; test: Adiponectin secretion from TNFα-treated 3T3-L1 adipocytes; assay type: cell-based, murine; conditions: 10 ng TNFα/ml
Description: For two days, the cells were allowed grow to reach confluence. […] (3) 0.5 μM dexamethasone and (4) 10 μg/ml insulin (MDI medium). […] Adiponectin Assay—The adiponectin secreted into the medium was quantified using the Mouse Adiponectin Quantikine® Immunoassay kit with no modifications (R&D Systems, Minneapolis, Minn.). […] Statistical Calculations and Interpretation—All assays were preformed in duplicate. […] Differences among the doses and test agents were determined using the Student's t-test without correction for multiple comparisons; the nominal five percent probability of a type I error was selected.

db/db mice = test: Non-fasting serum glucose and insulin in db/db diabetic mice; assay type: in vivo, mouse; conditions: three daily doses
Description: The Model—Male, C57BLKS/J m^+/m^+Lepr^db (db/db) mice were used to assess the potential of the test materials to reduce fasting serum glucose or insulin concentrations. This strain of mice is resistant to leptin by virtue of the absence of a functioning leptin receptor.
Testing Procedure—Test substances were administered daily by gavage in 0.2% Tween-80. Serum was collected from the retroorbital sinus before the initial dose and ninety minutes after the third and final dose. Non-fasting serum glucose was determined enzymatically by the mutarotase/glucose oxidase method and serum insulin was determined by a mouse specific ELISA.
The Model—Male, C57BLKS/J m+/m+Leprdb (db/db) mice were used to assess the potential of the test materials to reduce fasting serum glucose or insulin concentrations. This strain of mice is resistant to leptin by virtue of the absence of a functioning leptin receptor.
Testing Procedure—Test substances were administered daily by gavage in 0.2% Tween-80. […] Non-fasting serum glucose was determined enzymatically by the mutarotase/glucose oxidase method and serum insulin was determined by a mouse specific ELISA.

DBA/J mice = test: Collagen induced rheumatoid arthritis murine model (arthritic index, histology, serum IL-6); assay type: in vivo, mouse; conditions: 10 mg/kg
[5] = system: insulin-resistant 3T3-L1 adipocytes; test: IL-6 secretion from insulin-resistant 3T3-L1 adipocytes; assay type: cell-based, murine
Description: Statistical Calculations and Interpretation—All assays were preformed in duplicate. For statistical analysis, the effect of hops derivatives on adiponectin or IL-6 secretion was computed relative to the solvent control. Differences among the doses were determined using analysis of variance without correction for multiple comparisons; the nominal five percent probability of a type I error was selected.

[6] = system: A549 pulmonary epithelial cells; test: PGE2 biosynthesis in A549 cells stimulated by mite dust allergen; assay type: cell-based, human; conditions: 10 μg/ml
Description: The filtrate was termed mite dust allergen and used to test for induction of PGE2 biosynthesis in A549 pulmonary epithelial cells.
Mite allergen was added to the culture medium to achieve a final concentration of 1000 ng/ml. Eighteen hours later, the media were sampled for PGE2 determination.

## CC(=O)Oc1ccccc1C(=O)O [Aspirin]
[1]; LPS 100 ng/ml
  adiponectin secretion: failed to induce adiponectin secretion

## CC(C)CCC1=C(O)C(C(=O)C(C)C)=C(O)C(CCC(C)C)(CCC(C)C)C1=O [Hexahydro colupulone]
3T3-L1 adipocytes
  lipogenic/adipogenic response: failed to elicit a lipogenic response

## CC(C)CCC1=C(O)C(C(=O)C(C)C)=C(O)C(CCC(C)C)(CCC(C)C)C1=O [Hexahydrocolupulone (HHCL)]
[2]
  Adiponectin/IL-6: 0.60#

## COc1ccc2c(c1)c(CC(=O)O)c(C)n2C(=O)c1ccc(Cl)cc1 [Indomethacin]
[1]; LPS 100 ng/ml, […]
  stimulation of adiponectin secretion: 9%
[1]
  % Stimulation of adiponectin secretion (maximum): 9%
3T3-L1 adipocytes
  lipogenic/adipogenic response: induced lipogenesis to a similar extent
[3]
  % Inhibition of IL-6 secretion (maximum): 53* %

## CCc1ccc(CCOc2ccc(CC3SC(=O)NC3=O)cc2)nc1 (stereo not shown) [Pioglitazone]
[4]
  maximum increase of adiponectin secretion over TNFα control: 80%
[4]; Test/TNFα control
  Adiponectin Index (maximum): 1.47
[1]
  % Stimulation of adiponectin secretion (maximum): 12%
[3]
  IL-6 Index: 0.37*

## Cc1c(C)c2c(c(C)c1O)CCC(C)(COc1ccc(CC3SC(=O)NC3=O)cc1)O2 (stereo not shown) [Troglitazone]
[4]
  maximum increase of adiponectin secretion over TNFα control: 51%
[1]
  % Stimulation of adiponectin secretion (maximum): 15%

## CN(C)C(=N)N=C(N)N [metformin]
db/db mice
  serum glucose relative to the controls: decreased
  serum insulin relative to the controls: decreased

## C[C@]12C=CC(=O)C=C1CC[C@@H]1[C@@H]2[C@@H](O)C[C@@]2(C)[C@H]1CC[C@]2(O)C(=O)CO [prednisolone]
DBA/J mice
  reduction of serum IL-6 levels: reached a statistical significance

## O=C(O)c1ccccc1O [salicylic acid]
[1]; LPS 100 ng/ml
  adiponectin secretion: failed to induce adiponectin secretion
[3]
  IL-6 Index: 0.52*

## COc1cc(O)c(CC=C(C)C)c(O)c1C(=O)/C=C/c1ccc(O)cc1 [xanthohumol]
[5]
  IL-6 secretion: Significant decreases in IL-6 secretion
3T3-L1 adipocytes
  lipogenic/adipogenic response: comparable to indomethacin and troglitazone

## Beta acids
[6]
  Percent PGE2 Inhibition: 83%
3T3-L1 adipocytes
  lipogenic/adipogenic response: comparable to indomethacin and troglitazone
